Assay type in all cases: cell-based
The target in assay [1] is T1, 168 GPCRs (Homo sapiens, UniProt P41587).
T1 construct: host or cells: PathHunter cell lines
T1 sequence (P41587 24-438): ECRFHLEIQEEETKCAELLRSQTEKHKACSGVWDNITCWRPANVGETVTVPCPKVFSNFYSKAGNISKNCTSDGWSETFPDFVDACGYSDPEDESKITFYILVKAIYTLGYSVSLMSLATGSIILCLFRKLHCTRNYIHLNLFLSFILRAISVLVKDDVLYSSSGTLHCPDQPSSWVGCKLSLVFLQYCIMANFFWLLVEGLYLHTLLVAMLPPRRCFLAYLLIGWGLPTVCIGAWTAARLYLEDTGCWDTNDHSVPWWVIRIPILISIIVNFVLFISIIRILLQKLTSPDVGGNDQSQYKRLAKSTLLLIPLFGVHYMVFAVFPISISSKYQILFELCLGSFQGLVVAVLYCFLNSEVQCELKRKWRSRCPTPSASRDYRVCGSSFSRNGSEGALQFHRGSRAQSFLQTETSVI
The conditions noted are these: VIPR2.

Assay [2] concerns the target T2, 168 GPCRs (Homo sapiens, UniProt Q15077).
T2 construct: host or cells: PathHunter cell lines
The conditions noted are these: P2RY6.

Assay [3] deals with T3, 168 GPCRs (Homo sapiens, UniProt Q96RI0).
T3 construct: host or cells: PathHunter cell lines
T3 sequence (Q96RI0 18-385): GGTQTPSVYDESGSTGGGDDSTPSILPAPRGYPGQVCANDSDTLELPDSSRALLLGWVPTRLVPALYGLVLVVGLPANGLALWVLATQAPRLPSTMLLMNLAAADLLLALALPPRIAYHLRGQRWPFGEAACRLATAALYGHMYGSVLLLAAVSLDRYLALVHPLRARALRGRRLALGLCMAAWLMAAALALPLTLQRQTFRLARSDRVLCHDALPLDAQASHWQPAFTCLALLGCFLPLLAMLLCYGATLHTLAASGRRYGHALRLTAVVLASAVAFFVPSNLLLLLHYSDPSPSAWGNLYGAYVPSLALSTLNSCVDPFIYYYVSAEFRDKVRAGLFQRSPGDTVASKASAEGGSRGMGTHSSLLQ

In assay [4] the target is T4, 168 GPCRs (Homo sapiens, UniProt P30939).
T4 construct: host or cells: PathHunter cell lines
T4 sequence (P30939 1-366): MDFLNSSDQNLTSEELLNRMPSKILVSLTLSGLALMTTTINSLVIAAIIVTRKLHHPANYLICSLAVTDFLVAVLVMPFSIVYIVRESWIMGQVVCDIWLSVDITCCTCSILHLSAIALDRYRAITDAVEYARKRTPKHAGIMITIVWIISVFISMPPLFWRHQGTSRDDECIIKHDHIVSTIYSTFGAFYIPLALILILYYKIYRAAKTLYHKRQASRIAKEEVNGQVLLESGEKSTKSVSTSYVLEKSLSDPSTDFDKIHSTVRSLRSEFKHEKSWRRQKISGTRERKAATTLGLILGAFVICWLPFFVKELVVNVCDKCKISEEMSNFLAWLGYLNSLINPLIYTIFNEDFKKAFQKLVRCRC
The conditions noted are these: HTR1F.

In assay [5] the target is T5, 168 GPCRs (Homo sapiens, UniProt Q01726).
T5 construct: host or cells: PathHunter cell lines
T5 sequence (Q01726 whole entry): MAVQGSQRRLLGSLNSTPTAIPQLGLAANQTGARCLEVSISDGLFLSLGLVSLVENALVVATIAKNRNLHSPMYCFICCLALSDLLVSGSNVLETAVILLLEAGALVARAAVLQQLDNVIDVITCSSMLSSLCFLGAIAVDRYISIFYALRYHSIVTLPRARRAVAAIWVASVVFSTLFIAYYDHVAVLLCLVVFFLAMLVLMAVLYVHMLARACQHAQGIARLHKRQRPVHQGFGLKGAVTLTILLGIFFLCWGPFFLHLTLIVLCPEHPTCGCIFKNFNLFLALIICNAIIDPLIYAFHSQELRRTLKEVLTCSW
The conditions noted are these: MC1R.

For assay [6], the target named is T6, 168 GPCRs (Homo sapiens, UniProt P21452).
T6 construct: host or cells: PathHunter cell lines
T6 sequence (P21452 1-398): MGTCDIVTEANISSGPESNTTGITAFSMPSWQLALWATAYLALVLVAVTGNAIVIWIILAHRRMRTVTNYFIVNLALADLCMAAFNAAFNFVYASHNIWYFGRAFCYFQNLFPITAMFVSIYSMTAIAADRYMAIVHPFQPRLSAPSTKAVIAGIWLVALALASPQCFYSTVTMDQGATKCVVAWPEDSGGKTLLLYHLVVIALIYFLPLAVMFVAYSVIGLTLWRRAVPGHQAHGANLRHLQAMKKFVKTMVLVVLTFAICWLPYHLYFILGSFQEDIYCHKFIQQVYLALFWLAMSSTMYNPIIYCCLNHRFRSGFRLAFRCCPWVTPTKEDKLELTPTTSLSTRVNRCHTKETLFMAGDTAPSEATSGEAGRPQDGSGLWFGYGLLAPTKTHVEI
The settings on record: TACR2.

Read-outs that look alike come from different tables or passages of the source.

T2 sequence (Q15077 whole entry): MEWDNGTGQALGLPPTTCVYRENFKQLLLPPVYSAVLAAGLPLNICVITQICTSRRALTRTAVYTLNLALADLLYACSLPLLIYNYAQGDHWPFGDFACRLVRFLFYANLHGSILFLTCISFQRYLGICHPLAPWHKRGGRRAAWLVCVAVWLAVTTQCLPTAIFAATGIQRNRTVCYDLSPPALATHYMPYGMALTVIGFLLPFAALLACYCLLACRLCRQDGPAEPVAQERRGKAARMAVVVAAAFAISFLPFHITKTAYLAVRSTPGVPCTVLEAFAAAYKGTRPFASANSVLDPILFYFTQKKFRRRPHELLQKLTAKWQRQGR

`CNC(C)Cc1ccc2c(c1)OCO2` (stereo not drawn) [MDMA, 3,4-Methylenedioxy methamphetamine, reference compound]: the “% Agonist Activity” value on 168 GPCRs [1] (Conc 1 uM) is on record as -1.6%; on 168 GPCRs [1] (Conc 10 uM) it was -0.7%; at 168 GPCRs [2] (Conc 1 uM) it was 4.9%; at 168 GPCRs [2] (Conc 10 uM), 4.6%; on 168 GPCRs [3] (F2RL3, 1 uM) it was 10.8%; on 168 GPCRs [3] (F2RL3, 10 uM), 8.5%. Further, the “% Agonist Activity” value on 168 GPCRs [4] (1 uM) is recorded as 10.9%; at 168 GPCRs [4] (10 uM) it was 8.5%; at 168 GPCRs [5] (1 uM), -6.6%; on 168 GPCRs [5] (10 uM), -3.4%; on 168 GPCRs [6] (Conc 1 uM) it was 0.1%; on 168 GPCRs [6] (Conc 10 uM) it was -0.1%. The “% Antagonist Activity” value is given as -1.1% on 168 GPCRs [1] (Conc 1 uM); 3.1% at 168 GPCRs [1] (Conc 10 uM); 2.5% on 168 GPCRs [2] (Conc 1 uM); 1.2% on 168 GPCRs [2] (Conc 10 uM); 9.6% at 168 GPCRs [3] (F2RL3, 1 uM); 13.3% at 168 GPCRs [3] (F2RL3, 10 uM). In addition, the “% Antagonist Activity” value on 168 GPCRs [4] (1 uM) was 14.6%; on 168 GPCRs [4] (10 uM), 10.8%; at 168 GPCRs [5] (1 uM) it was 6.5%; at 168 GPCRs [5] (10 uM) it was -4.9%; at 168 GPCRs [6] (Conc 1 uM), 12.5%; at 168 GPCRs [6] (Conc 10 uM) it was 10.7%.

Consider `CNC(C)C(=O)c1ccc2c(c1)OCO2` (stereo not drawn) [methylone], for which the “% Agonist Activity” value on 168 GPCRs [1] (Conc 1 uM) is listed as -0.4%; on 168 GPCRs [1] (Conc 10 uM) it was -0.3%; on 168 GPCRs [2] (Conc 1 uM) it was 4.5%; on 168 GPCRs [2] (Conc 10 uM), 2.4%; on 168 GPCRs [3] (F2RL3, 1 uM), 4.3%; at 168 GPCRs [3] (F2RL3, 10 uM), 7%. Besides, the “% Agonist Activity” value at 168 GPCRs [4] (1 uM) is recorded as -4.4%; at 168 GPCRs [4] (10 uM), -3%; on 168 GPCRs [5] (1 uM), -2.6%; at 168 GPCRs [5] (10 uM), -4.4%; on 168 GPCRs [6] (Conc 1 uM), -1.9%; on 168 GPCRs [6] (Conc 10 uM) it was -3.3%. The “% Antagonist Activity” value is -1.5% on 168 GPCRs [1] (Conc 1 uM); -2.6% at 168 GPCRs [1] (Conc 10 uM); 6.5% on 168 GPCRs [2] (Conc 1 uM); 2.6% on 168 GPCRs [2] (Conc 10 uM); -11.3% at 168 GPCRs [3] (F2RL3, 1 uM); -6.9% on 168 GPCRs [3] (F2RL3, 10 uM). Moreover, the “% Antagonist Activity” value on 168 GPCRs [4] (1 uM) is given as 14.4%; on 168 GPCRs [4] (10 uM), 9.2%; at 168 GPCRs [5] (1 uM), 20.1%; at 168 GPCRs [5] (10 uM), 15.9%; on 168 GPCRs [6] (Conc 1 uM) it was 10%; on 168 GPCRs [6] (Conc 10 uM), 9.1%.

The record behind these values is article PMC10882719 (Frontiers in Neuroscience, 2024).
